Measurements: patent US20120076871A1, “METHOD FOR DETECTING, QUANTIFYING AND MAPPING DAMAGE AND/OR REPAIR OF DNA STRANDS” (GENOMIC VISION SA, priority 2010, published 2012)

Legend:
[1] = tested on: testicular cancer; conditions: strongly reduced DNA repair capacity; cited from earlier work
[2] = tested on: non-small cell lung cancer (NSCLC); conditions: higher levels of DNA repair capacity; cited from earlier work
[3] = tested on: human DNA extracted from cells; assay: Relative fragmentation-induced Profile Deviation: Fpg treatment and Molecular Combing of DNA from cells exposed to H2O2; assay type: cell-based
Method: Construction of a DNA length reference profile of a healthy cellular population and comparison of the profile obtained from the same population after exposure to a genotoxic agent is performed. High resolution DNA length reference profiles are constructed by measuring the size of thousands of DNA molecules uniformly stretched on a combed slide.
In the case of damage generated at high frequency along the genome (for instance SSB, abasic sites, methylated, alkylated, oxidated bases, photoproducts), the conversion of most of the targeted lesions into DSB generates theoretically as much new DNA extremities as much lesions were present on the molecules. When comparing the length distribution profile of the damaged sample with the undamaged reference, a Profile Deviation (PD) associated to a specific damage appears. The amount of lesions generated by the genotoxic compound can then be estimated directly from the PD. […]
For direct visualization of stretched DNA, cover-slips were mounted with 20 μL of a Block-Aid (Invitrogen, ref. B-10710)-YOYO-1 iodide (Molecular Probes, code Y3601) mixture (10000:1 v/v) in order to counter-stain all stretched molecules. […] Length of the YOYO-1-stained DNA fibers were measured with internal software GVlab v0.4.6 (Genomic Vision S.A., Paris, France).

SMILES	survival rate after cisplatin treatment [1]	survival after cisplatin treatment [2]	decay constants τ of exponential fit y=Ae^-x/τ of DNA size distribution as a function of H2O2 dose ([3]; 1, 5, 10 and 20 mM H2O2, 10 min, control excluded from linear fit)	length of stretched DNA strands (clustered oxidative damage) after Fpg treatment ([3]; cells incubated 10 min with 10 and 20 mM H2O2, compared to control sample)
N.N.[Cl][Pt][Cl] [cisplatin]	95%	low survival	–	–
OO [H2O2]	–	–	decrease linearly	much shorter than in the control sample
